Bridge positions count the residues as written; N and C are the ends. Side chains are listed from the residue outwards. Peptide text beside a SMILES is read from it. * marks the point of attachment. Butanoyl(4-(4-I-phenyl)) = O=C(CCCc1ccc(I)cc1)*; PEG2 = NCCOCCOCCC(=O)O
What was measured:
MAOA = target: T1, MAOA (Homo sapiens, UniProt P21397); experiment: Safetyscan47 Non-Kinase Enzymes Enzymatic, Inhibitor; assay type: biochemical; details: for Emax: read-out: Max Response
T1 sequence (P21397 1-527): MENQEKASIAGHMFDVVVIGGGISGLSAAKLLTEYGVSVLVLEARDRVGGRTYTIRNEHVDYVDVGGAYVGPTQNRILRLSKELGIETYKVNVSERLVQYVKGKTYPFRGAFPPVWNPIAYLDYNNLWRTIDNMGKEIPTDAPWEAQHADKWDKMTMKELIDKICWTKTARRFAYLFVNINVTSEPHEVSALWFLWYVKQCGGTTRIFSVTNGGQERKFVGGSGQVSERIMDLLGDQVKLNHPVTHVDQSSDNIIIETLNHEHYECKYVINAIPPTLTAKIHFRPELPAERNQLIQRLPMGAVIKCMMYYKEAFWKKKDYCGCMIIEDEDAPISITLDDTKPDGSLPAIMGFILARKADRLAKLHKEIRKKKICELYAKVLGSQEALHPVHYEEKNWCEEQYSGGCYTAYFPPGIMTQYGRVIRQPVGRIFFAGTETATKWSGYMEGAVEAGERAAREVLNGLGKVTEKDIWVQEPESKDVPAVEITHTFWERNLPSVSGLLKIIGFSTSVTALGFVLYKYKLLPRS

integrin αvβ8 = integrin αvβ8 (Homo sapiens, UniProt P06756+P26012); experiment: ELISA competition assay, integrin αvβ8 binding to LAP
integrin αvβ5 = integrin αvβ5 (Homo sapiens, UniProt P06756+P18084); experiment: ELISA competition assay, integrin αvβ5; assay type: binding
ADRB2 = ADRB2 (Homo sapiens, UniProt P07550); experiment: Safetyscan47 GPCR cAMP, Agonist; assay type: cell-based; details: for Emax: read-out: Max Response
EDNRA = target: T2, EDNRA (Homo sapiens, UniProt P25101); experiment: Safetyscan47 GPCR Calcium Flux, Antagonist; assay type: cell-based; details: for Emax: read-out: Max Response
T2 sequence (P25101 21-427): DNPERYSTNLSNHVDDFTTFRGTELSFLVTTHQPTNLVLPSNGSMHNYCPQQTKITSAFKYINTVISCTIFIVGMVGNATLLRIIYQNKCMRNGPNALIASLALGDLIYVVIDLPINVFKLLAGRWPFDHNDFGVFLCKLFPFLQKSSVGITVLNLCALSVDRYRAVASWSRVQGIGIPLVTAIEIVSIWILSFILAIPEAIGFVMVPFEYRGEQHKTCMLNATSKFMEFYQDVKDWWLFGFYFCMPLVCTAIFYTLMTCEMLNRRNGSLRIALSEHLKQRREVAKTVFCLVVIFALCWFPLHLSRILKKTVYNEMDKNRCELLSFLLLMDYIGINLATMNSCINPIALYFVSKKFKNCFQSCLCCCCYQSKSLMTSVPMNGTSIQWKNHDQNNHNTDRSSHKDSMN

VEGFR2 = VEGFR2 (Homo sapiens, UniProt P35968); experiment: Safetyscan47 Kinases Binding, Inhibitor; details: for Emax: read-out: Max Response
ADRA2A = target: T3, ADRA2A (Homo sapiens, UniProt P08913); experiment: Safetyscan47 GPCR cAMP, Antagonist; assay type: cell-based; details: for Emax: read-out: Max Response
T3 sequence (P08913 1-465): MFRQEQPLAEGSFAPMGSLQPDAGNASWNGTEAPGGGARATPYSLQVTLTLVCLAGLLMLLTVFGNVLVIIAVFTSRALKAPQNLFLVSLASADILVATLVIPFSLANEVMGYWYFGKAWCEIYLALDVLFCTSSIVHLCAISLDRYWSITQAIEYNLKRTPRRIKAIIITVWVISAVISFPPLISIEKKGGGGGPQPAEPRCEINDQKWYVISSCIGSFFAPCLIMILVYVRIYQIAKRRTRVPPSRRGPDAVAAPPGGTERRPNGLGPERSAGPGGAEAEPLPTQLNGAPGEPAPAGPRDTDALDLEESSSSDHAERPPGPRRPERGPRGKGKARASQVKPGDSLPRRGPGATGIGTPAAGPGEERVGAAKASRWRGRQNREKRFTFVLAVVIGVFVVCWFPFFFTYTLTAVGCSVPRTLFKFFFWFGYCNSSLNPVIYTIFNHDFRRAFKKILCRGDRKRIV

carboxypeptidase Y = carboxypeptidase Y (Saccharomyces cerevisiae, UniProt P00729); experiment: Proteolysis test, carboxypeptidase Y treatment for 4 h, HPLC; assay type: in vitro ADME
DRD1 = DRD1 (Homo sapiens, UniProt P21728); experiment: Safetyscan47 GPCR cAMP, Antagonist; assay type: cell-based; details: for Emax: read-out: Max Response
HTR3A = target: T4, HTR3A (Homo sapiens, UniProt P46098); experiment: Safetyscan47 Ion Channel, Blocker; assay type: cell-based; details: for Emax: read-out: Max Response
T4 sequence (P46098 24-478): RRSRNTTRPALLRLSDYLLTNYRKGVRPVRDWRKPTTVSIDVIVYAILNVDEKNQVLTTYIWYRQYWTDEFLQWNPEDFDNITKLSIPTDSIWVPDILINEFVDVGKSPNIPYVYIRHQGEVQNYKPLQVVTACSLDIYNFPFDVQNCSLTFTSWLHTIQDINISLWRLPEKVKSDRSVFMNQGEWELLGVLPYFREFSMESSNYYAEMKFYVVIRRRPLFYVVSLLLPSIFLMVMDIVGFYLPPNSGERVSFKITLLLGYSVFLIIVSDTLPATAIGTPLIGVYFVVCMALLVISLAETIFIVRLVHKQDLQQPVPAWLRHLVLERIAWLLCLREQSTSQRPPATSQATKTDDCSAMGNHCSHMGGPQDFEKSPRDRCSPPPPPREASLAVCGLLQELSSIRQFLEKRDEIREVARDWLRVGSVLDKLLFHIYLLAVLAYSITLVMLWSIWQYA

HTR1B = HTR1B (Homo sapiens, UniProt P28222); experiment: Safetyscan47 GPCR cAMP, Antagonist; assay type: cell-based; details: for Emax: read-out: Max Response
KvLQT1/minK = KvLQT1/minK (Homo sapiens, UniProt P15382+P51787); experiment: Safetyscan47 Ion Channel, Opener; assay type: cell-based; details: for Emax: read-out: Max Response
HTR2A = HTR2A (Homo sapiens, UniProt P28223); experiment: Safetyscan47 GPCR Calcium Flux, Agonist; assay type: cell-based; details: for Emax: read-out: Max Response

Row | Compound | IC50 (MAOA) [µM] | Emax (MAOA) [%] | IC50 (integrin αvβ8) [µM] | IC50 (integrin αvβ5) [µM] | EC50 (ADRB2) [µM] | Emax (ADRB2) [%] | IC50 (EDNRA) [µM] | Emax (EDNRA) [%] | IC50 (VEGFR2) [µM] | Emax (VEGFR2) [%] | IC50 (ADRA2A) [µM] | Emax (ADRA2A) [%] | change in HPLC trace after proteolysis (carboxypeptidase Y) | IC50 (DRD1) [µM] | Emax (DRD1) [%] | IC50 (HTR3A) [µM] | Emax (HTR3A) [%] | IC50 (HTR1B) [µM] | Emax (HTR1B) [%] | EC50 (KvLQT1/minK) [µM] | further results
1 | CC[C@H](C)[C@H](NC(=O)[C@H](CC(C)C)NC(=O)[C@H](CC(=O)O)NC(=O)CNC(=O)[C@H](CCCNC(=N)N)NC(=O)[C@@H](NC(=O)[C@H](Cc1ccccc1)NC(=O)[C@H](Cc1ccc(O)cc1)NC(=O)[C@@H]1CCC(=O)NCC(=O)NCC(=O)N[C@@H](CCCNC(=N)N)C(=O)NCC(=O)N[C@@H](Cc2c[nH]cn2)C(=O)N[C@@H](C(C)C)C(=O)N2CCC[C@H]2C(=O)N1)C(C)C)C(=O)N[C@@H](CO)C(=O)N[C@@H](Cc1ccccc1)C(=O)N[C@@H](Cc1ccc(O)cc1)C(=O)N[C@@H](CCCCN)C(=O)O [lassotide 36] (GGRGHVPEYFVRGDLISFYK-OH; lactam N-8) | > 45 | 10.8 | 0.015 | > 10 | > 45 | 0 | > 45 | 2.52 | > 45 | 6.3 | > 45 | 0 | little or no change | > 45 | 11.1 | > 45 | 8.73 | > 45 | 0 | > 45 | Emax (KvLQT1/minK): 0%; EC50 (HTR2A): > 45 µM; Emax (HTR2A): 1.7%
2 | CC[C@H](C)[C@H](NC(=O)[C@H](CC(C)C)NC(=O)[C@H](CC(=O)O)NC(=O)CNC(=O)[C@H](CCCNC(=N)N)NC(=O)[C@@H](NC(=O)[C@H](Cc1ccccc1)NC(=O)[C@H](Cc1ccc(O)cc1)NC(=O)[C@@H]1CCC(=O)NCC(=O)NCC(=O)N[C@@H](CCCNC(=N)N)C(=O)NCC(=O)N[C@@H](Cc2c[nH]cn2)C(=O)N[C@@H](C(C)C)C(=O)N2CCC[C@H]2C(=O)N1)C(C)C)C(=O)N[C@@H](CO)C(=O)N[C@@H](Cc1ccccc1)C(=O)N[C@@H](Cc1ccc(O)cc1)C(=O)N[C@@H](CCCCNC(=O)CCOCCOCCNC(=O)CCCc1ccc(I)cc1)C(=O)O [lassotide 47] (GGRGHVPEYFVRGDLISFYK([PEG2-Butanoyl(4-(4-I-phenyl))])-OH; lactam N-8) | > 45 | 0 | 0.0079 | > 10 | > 45 | 0 | > 45 | 0 | > 45 | 2.92 | > 45 | 0 | little or no change | > 45 | 35.1 | > 45 | 9.38 | > 45 | 0 | > 45 | Emax (KvLQT1/minK): 0%; EC50 (HTR2A): > 45 µM; Emax (HTR2A): 3.54%

— article doi:10.1101/2025.01.28.635346v1 (bioRxiv, 2025)
